In patent US20250248955A1, “PHENYL ACRYLIC ACID COMPOUND, AND PREPARATION METHOD AND APPLICATION THEREOF” (LONGIVITRON (SUZHOU) BIOTECHNOLOGY CO., LTD, priority 2022, published 2025):

Molecular target: ACAT1 (Homo sapiens (Human), UniProt P24752)
Test: ACAT1 small molecule inhibitor screening (enzyme activity, IC50)
Type: biochemical
Settings: summary of Table 1; unit given as mol/L
Protocol: ACAT1 can catalyze two molecules of acetyl coenzyme A to reversibly form acetoacetyl coenzyme A. Its activity was measured through the reaction between ACAT1-catalyzed substrate acetoacetyl-coenzyme A and coenzyme A, from which the product acetyl-coenzyme A is produced. Since acetoacetyl-coenzyme A is specifically absorbed in a specific spectrum, the impact on the enzyme activity of ACAT1 can be reflected through the detection of an increase or decrease of absorption in a specific spectrum.
ACAT1 recombinant proteins were expressed and purified by Escherichia coli, and the concentration of ACAT1 recombinant proteins obtained was 1 mg/mL. The buffers adopted for ACAT1 small molecule inhibitor screening were 50 mM Tris-HCl (pH 8.1), 20 mM MgCl2, and 40 mM KCl. In 200 μL of enzyme catalytic system, 1 μL of ACAT1 recombinant proteins, the substrate acetyl-coenzyme A whose final concentration was changed from 25 μM to 100 μM through a CPM probe, and small molecule inhibitors at different concentrations were added, respectively. The measurement was carried out through a microplate reader (Biotek Synergy H1) and using excitation light at 355 nm and emission light at 460 nm, and the IC50 of the inhibitors was calculated through software Prism 7.0.

Chain of ACAT1 (P24752 34-427): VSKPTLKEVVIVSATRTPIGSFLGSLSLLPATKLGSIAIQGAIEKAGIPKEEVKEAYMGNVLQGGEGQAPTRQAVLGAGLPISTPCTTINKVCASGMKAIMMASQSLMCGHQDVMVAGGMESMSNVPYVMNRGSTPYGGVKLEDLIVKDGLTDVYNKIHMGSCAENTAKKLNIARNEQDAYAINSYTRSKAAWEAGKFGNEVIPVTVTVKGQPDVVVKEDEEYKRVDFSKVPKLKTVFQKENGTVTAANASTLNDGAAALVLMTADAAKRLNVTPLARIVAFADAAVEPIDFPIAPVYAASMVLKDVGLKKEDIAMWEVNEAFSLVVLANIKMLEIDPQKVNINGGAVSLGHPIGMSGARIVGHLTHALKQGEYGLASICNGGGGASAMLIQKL

IC50, < 100 µM:
Cc1ccc(CCOc2ccc(NC(=O)/C=C/c3ccc(O)c(O)c3)cc2)cc1 [Compound M7]
COCOc1ccc(/C=C/C(=O)Nc2ccc(OCCc3cc(OC)c(OC)c(OC)c3)cc2)cc1OCOC [Compound M17]
COc1ccc(CCOc2ccc(NC(=O)/C=C/c3ccc(O)c(O)c3)cc2)cc1 [Compound M5]
COc1cc(CCOc2ccc(NC(=O)/C=C/c3ccc(O)c(O)c3)cc2)cc(OC)c1OC [Compound M10]
COc1ccc(CCOc2ccc(NC(=O)/C=C/c3ccc(O)c(O)c3)cc2)cc1OC [Compound M9]
COCOc1ccc(/C=C/C(=O)Nc2ccc(OCCc3ccc(OC)cc3)cc2)cc1OCOC [Compound M12]
